Measurements reported in USRE47689E1, “Compounds for treating spinal muscular atrophy” (PTC Therapeutics, Inc., priority 2011, dated 2019).
Where two headings read alike, the source gives them in different places.

Columns and labels:
[1] = tested on: SMN2 minigene (full length SMN2 minigene mRNA containing SMN2 exon 7); assay: SMN2 minigene mRNA splicing RT-qPCR assay in cultured cells; format: cell-based, human; details: Homo sapiens, HEK293-H, read-out: EC1.5x for production of full length SMN2 mRNA
In short: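 HEK293H cells stably carrying the SMN2-A minigene treated 24 h at 37° C with compound (DMSO, 200× stock), then lysed. Multiplex RT-qPCR (SMN primers 0.4 μM final; 40 cycles) measures full-length exon 7-containing minigene mRNA, normalized to GAPDH and to vehicle; EC1.5x derived and binned by stars.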

Smn protein = Smn protein assay in cultured cells (SMN HTRF); format: cell-based, human; details: 48 hours; for EC1.5x (concentration giving 1.5-fold Smn protein increase): SMA Type 1 patient fibroblast cells (GM03813), 7-point concentration curve, SMN HTRF, concentration producing 1.5 times Smn protein vs DMSO vehicle control, read-out: EC1.5x for Smn protein expression; for maximum fold (Fold) increase of Smn protein: SMA patient fibroblast cells, 7-point concentration data, fold increase relative to vehicle control (SMN HTRF)
In short: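 Lysates in RIPA with protease inhibitors are incubated overnight at room temperature with HTRF anti-SMN antibodies. EC1.5x is derived from fold increase in ΔF over vehicle.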

[2] = HEK293H cells stably transfected with SMN2-A minigene, 24 hours, 7-point concentration curve, 1.5-fold relative to vehicle-treated cells

Row | Compound | melting point | EC (1.5-fold) [1, 2] | EC1.5x (concentration giving 1.5-fold Smn protein increase) (Smn protein) | maximum fold (Fold) increase of Smn protein (Smn protein) | EC (1.5-fold) ([1]; 24 h)
1 | CNCCCc1ccc2cc(-c3cc(F)c4nc(C)cn4c3)c(=O)oc2c1 [Compound 913, 3-(8-fluoro-2-methylimidazo[1,2-a]pyridin-6-yl)-7-[3-(methylamino)propyl]-2H-chromen-2-one] | 163 to 166 °C | < 0.1 µM | < 300 nM | ***** (fold increase >1.65) | –
2 | CCN1CCN(c2ccc3cc(-c4cc5cnc(C)cn5c4)c(=O)oc3c2)CC1 [Compound 640, 7-(4-ethylpiperazin-1-yl)-3-(3-methylpyrrolo[1,2-a]pyrazin-7-yl)-2H-chromen-2-one] | 208 to 210 °C | < 0.1 µM | < 300 nM | **** (fold increase between >1.5 and ≤1.65) | –
3 | O=C(Oc1ccc2cc(-c3nc4c(Cl)cccc4s3)c(=O)oc2c1)N1CCNCC1 [Cpd 42, 3-(4-chloro-1,3-benzothiazol-2-yl)-2-oxo-2H-chromen-7-yl piperazine-1-carboxylate] | 236 to 239 °C | – | – | * (maximum fold increase of ≤1.2) | 1 to 3 µM
4 | CNCCCCc1ccc2cc(-c3cn4cc(C)nc(C)c4n3)c(=O)oc2c1 [Compound 952, 3-(6,8-dimethylimidazo[1,2-a]pyrazin-2-yl)-7-[4-(methylamino)butyl]-2H-chromen-2-one] | 180 to 184 °C | < 0.1 µM | < 300 nM | ***** (fold increase >1.65) | –
5 | Cc1nccc(-c2cc3ccc(N4CCNCC4)cc3oc2=O)n1.Cl [Cpd 274, 3-(2-methylpyrimidin-4-yl)-7-(piperazin-1-yl)-2H-chromen-2-one hydrochloride] | 200 °C (dec.) | – | – | ** (fold increase between >1.2 and ≤1.35) | 1 to 3 µM
6 | Cc1nccn2cc(-c3cc4ccc(N5CCCN(C)CC5)cc4oc3=O)nc12 [Compound 558, 7-(4-methyl-1,4-diazepan-1-yl)-3-(8-methylimidazo[1,2-a]pyrazin-2-yl)-2H-chromen-2-one] | 180 to 182 °C | < 0.1 µM | 300 to 1000 nM | **** (fold increase between >1.5 and ≤1.65) | –
7 | Cc1cn2cc(-c3cc4ccc(N5CCN(C6CCC6)CC5)cc4oc3=O)nc2cn1 [Compound 838, 7-(4-cyclobutylpiperazin-1-yl)-3-(6-methylimidazo[1,2-a]pyrazin-2-yl)-2H-chromen-2-one] | 268 to 274 °C | < 0.1 µM | < 300 nM | ***** (fold increase >1.65) | –
8 | Cc1csc(-c2cc3ccc(N4CCN[C@@H](C)C4)cc3oc2=O)n1 [Cpd 283, 7-[(3S)-3-methylpiperazin-1-yl]-3-(4-methyl-1,3-thiazol-2-yl)-2H-chromen-2-one] | 194 to 199 °C | – | – | * (maximum fold increase of ≤1.2) | 0.3 to 1 µM
9 | Cc1cn2cc(-c3cc4ccc(N5CCC(NC(C)CO)CC5)cc4oc3=O)nc2c(C)n1 (centres unmarked) [Compound 925, 3-(6,8-dimethylimidazo[1,2-a]pyrazin-2-yl)-7-{4-[(1-hydroxypropan-2-yl)amino]piperidin-1-yl}-2H-chromen-2-one] | 185 to 189 °C | < 0.1 µM | 1000 to 3000 nM | *** (fold increase between >1.35 and ≤1.5) | –
10 | Cc1cc2cc(-c3cc4ccc(N5CCN(CCO)CC5)cc4oc3=O)oc2c(C)n1 [Compound 774, 3-(5,7-dimethylfuro[2,3-c]pyridin-2-yl)-7-[4-(2-hydroxyethyl)piperazin-1-yl]-2H-chromen-2-one] | 203 to 205 °C | < 0.1 µM | < 300 nM | **** (fold increase between >1.5 and ≤1.65) | –

More lines, main results first:

Row | melting point | Compound | EC (1.5-fold) [1, 2] | EC1.5x (concentration giving 1.5-fold Smn protein increase) (Smn protein) | maximum fold (Fold) increase of Smn protein (Smn protein) | EC (1.5-fold) ([1]; 24 h)
11 | 145 to 153 °C | Cc1cn2cc(-c3cc4ccc(CCCN5CCNCC5)cc4oc3=O)nc2c(C)n1 [Compound 859, 3-(6,8-dimethylimidazo[1,2-a]pyrazin-2-yl)-7-[3-(piperazin-1-yl)propyl]-2H-chromen-2-one] | 0.1 to 0.3 µM | 300 to 1000 nM | **** (fold increase between >1.5 and ≤1.65) | –
12 | 152 to 155 °C | CN1CCCN(c2ccc3cc(-c4cn5cc(F)ccc5n4)c(=O)oc3c2)CC1 [Compound 294, 3-(6-fluoroimidazo[1,2-a]pyridin-2-yl)-7-(4-methyl-1,4-diazepan-1-yl)-2H-chromen-2-one] | 0.1 to 0.3 µM | 1000 to 3000 nM | ** (fold increase between >1.2 and ≤1.35) | –
13 | 295 to 298 °C | Cc1ccn2cc(-c3cc4ccc(N5CCNCC5)cc4oc3=O)nc2n1 [Compound 223, 3-(7-methylimidazo[1,2-a]pyrimidin-2-yl)-7-(piperazin-1-yl)-2H-chromen-2-one] | 0.3 to 1 µM | – | * (maximum fold increase of ≤1.2) | –
14 | 260 to 270 °C | Cc1ccn2cc(-c3cc4ccc(N5CCNCC5)cc4oc3=O)nc2c1 [Compound 131, 3-(7-methylimidazo[1,2-a]pyridin-2-yl)-7-(piperazin-1-yl)-2H-chromen-2-one] | 0.3 to 1 µM | – | *** (fold increase between >1.35 and ≤1.5) | –
15 | 205 to 211 °C | O=c1oc2cc(O[C@@H]3CCNC3)ccc2cc1-c1nc2ccccc2s1 [Compound 55, 3-(1,3-benzothiazol-2-yl)-7-[(3R)-pyrrolidin-3-yloxy]-2H-chromen-2-one] | 1 to 3 µM | – | * (maximum fold increase of ≤1.2) | –
16 | 203 to 208 °C | CCc1cc(C)cn2cc(-c3cc4ccc(N5C[C@@H](C)N[C@@H](C)C5)cc4oc3=O)nc12 [Compound 341, 7-[(3R,5S)-3,5-dimethylpiperazin-1-yl]-3-(8-ethyl-6-methylimidazo[1,2-a]pyridin-2-yl)-2H-chromen-2-one] | 0.3 to 1 µM | – | * (maximum fold increase of ≤1.2) | –
17 | 260 to 262 °C | C[C@H]1CN(c2ccc3cc(-c4cn5cc(Cl)cnc5n4)c(=O)oc3c2)CCN1 [Compound 376, 3-(6-chloroimidazo[1,2-a]pyrimidin-2-yl)-7-[(3S)-3-methylpiperazin-1-yl]-2H-chromen-2-one] | 1 to 3 µM | – | * (maximum fold increase of ≤1.2) | –
18 | 178 to 180 °C | O=c1oc2cc(N3CCCNCC3)ccc2cc1-c1cc2ccccn2n1 [Compound 192, 7-(1,4-diazepan-1-yl)-3-(pyrazolo[1,5-a]pyridin-2-yl)-2H-chromen-2-one] | 0.3 to 1 µM | – | ** (fold increase between >1.2 and ≤1.35) | –
19 | 246 to 256 °C | Cc1cc(F)c2nc(-c3cc4ccc(N5CC6CCC5CN6)cc4oc3=O)cn2c1 (centres unmarked) [Compound 600, 7-(2,5-diazabicyclo[2.2.2]oct-2-yl)-3-(8-fluoro-6-methylimidazo[1,2-a]pyridin-2-yl)-2H-chromen-2-one] | < 0.1 µM | < 300 nM | ***** (fold increase >1.65) | –
20 | 191 to 195 °C | Cc1nn2cc(-c3cc4ccc(N5CCCN(C)CC5)cc4oc3=O)nc2s1 [Compound 451, 7-(4-methyl-1,4-diazepan-1-yl)-3-(2-methylimidazo[2,1-b][1,3,4]thiadiazol-6-yl)-2H-chromen-2-one] | 1 to 3 µM | – | *** (fold increase between >1.35 and ≤1.5) | –
21 | 255 to 258 °C | Cc1cnc2nc(-c3cc4ccc(O[C@@H]5CCNC5)cc4oc3=O)cn2c1.Cl.Cl [Compound 327, 3-(6-methylimidazo[1,2-a]pyrimidin-2-yl)-7-[(3R)-pyrrolidin-3-yloxy]-2H-chromen-2-one hydrochloride (1:2)] | 0.3 to 1 µM | – | ** (fold increase between >1.2 and ≤1.35) | –
22 | 181 to 187 °C | CCc1ccn2cc(-c3cc4ccc(N5CCCN(C)CC5)cc4oc3=O)nc2c1 [Compound 333, 3-(7-ethylimidazo[1,2-a]pyridin-2-yl)-7-(4-methyl-1,4-diazepan-1-yl)-2H-chromen-2-one] | 0.3 to 1 µM | – | * (maximum fold increase of ≤1.2) | –
23 | 245 to 250 °C | Cc1ccc2nc(-c3cc4cc(F)c(N5CCNCC5)cc4oc3=O)cn2c1 [Compound 158, 6-fluoro-3-(6-methylimidazo[1,2-a]pyridin-2-yl)-7-(piperazin-1-yl)-2H-chromen-2-one] | 1 to 3 µM | – | ** (fold increase between >1.2 and ≤1.35) | –
24 | 235 to 238 °C | Cc1cn2cc(-c3cc4ccc(N5CCN(C)CC5)cc4oc3=O)ccc2n1 [Compound 678, 3-(2-methylimidazo[1,2-a]pyridin-6-yl)-7-(4-methylpiperazin-1-yl)-2H-chromen-2-one] | < 0.1 µM | < 300 nM | ***** (fold increase >1.65) | –
